Test results: patent US10450299B2, “Substituted quinazoline derivatives as DNA methyltransferase inhibitors” (Pierre Fabre Medicament, priority 2015, dated 2019)

Legend:
[1] = molecular target: T1, His-DNMT1 (182 kDa, human) (Homo sapiens, UniProt P26358); experiment: DNMT1 assay (tritiated SAM Flashplate methylation assay); assay type: biochemical
T1 construct: His; made in house
Experimental: His-DNMT1 (182 kDa, human) was cloned, expressed and purified as described in Halby et al. (ChemBioChem 2012, 13, 157-65). The reaction was performed in a 10 μL total reaction volume in low volume NBS™ 384-well microplates (Corning), containing the tested compound (up to 1% DMSO), 1 μM of a SAM/[methyl-^3H] SAM (3 TBq/mmol, PerkinElmer) mix in a ratio of 3-to-1 (isotopic dilution 1*:3), 0.3 μM of biotinylated hemimethylated DNA duplex (5′-GATmCGCmCGATGmCGmCGAATmCGmCGATmCGATGmCGAT-3′ and BIOT-5′-[…]-3′), and 90 nM of DNMT1 in methylation buffer (20 mM HEPES pH 7.2, 1 mM EDTA, 50 mM KCl, 25 μg/mL BSA). The reaction was incubated at 37° C. for 2 hours. 8 μL are then transferred into a streptavidin 96-well scintillant coated Flashplate™ (PerkinElmer) containing 190 μL of 20 μM SAH in 50 mM Tris-HCl pH 7.4. The Flashplate™ was agitated at room temperature for 1 hour, washed three times with 200 μL of 0.05% Tween®-20 in 50 mM Tris-HCl pH 7.4, and read in 200 μL of 50 mM Tris-HCl pH 7.4 on TopCount NXT™ (PerkinElmer).

[2] = molecular target: T2, human C-terminal DNMT3A (a.a. 623-908) (Homo sapiens, UniProt Q9Y6K1); experiment: DNMT3A assay (restriction-based fluorescence assay); assay type: biochemical
T2 construct: The human C-terminal DNMT3A (a.a. 623-908); made in house
T2 sequence (Q9Y6K1 627-912): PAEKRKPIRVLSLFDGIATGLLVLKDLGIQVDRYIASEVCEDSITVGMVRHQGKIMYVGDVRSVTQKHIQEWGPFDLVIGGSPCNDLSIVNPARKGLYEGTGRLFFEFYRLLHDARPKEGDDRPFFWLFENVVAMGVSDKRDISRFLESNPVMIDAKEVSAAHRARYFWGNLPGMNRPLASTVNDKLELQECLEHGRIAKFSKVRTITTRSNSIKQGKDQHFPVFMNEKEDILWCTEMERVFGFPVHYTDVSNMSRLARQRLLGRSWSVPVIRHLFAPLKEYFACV
Source text: DNMT3A enzyme inhibition was adapted from the restriction-based fluorescence assay protocol described in Ceccaldi et al. (ChemBioChem 2011, 12, 1337-45). Briefly, a 5′-labelled biotin oligonucleotide is hybridized to its complementary strand labelled with 6-carboxyfluorescein at the 3′-end into a 384 well microplate (black Optiplates; Perkin Elmer) pre-coated with avidin. The duplex contains a unique CpG site overlapping with a restriction site of a methylation sensitive restriction enzyme. The human C-terminal DNMT3A (a.a. 623-908), produced as described in Gros et al. (Nucleic Acids Research 2013 41(19):e185), was added in each well (200 ng/well) and mixed with the chemical compounds at desired concentrations and freshly prepared AdoMet (20 μM final concentration) to start the reaction in a total volume of 50 μL. After 1 hour incubation at 37° C. each well were washed three times with PBS, Tween-20 0.05%, NaCl (500 mM) and three more times with PBST. Specific fluorescent signals were detected with the methylation-sensitive restriction enzyme HpyCH4IV (NEB) as described and measured on a Perkin Elmer Envision detector. The percentage of inhibition is reported. The formula used to calculate the percentage of inhibition is [(X−Y)/X]×100, where X is the signal determined in the absence of the inhibitor and Y is the signal obtained in the presence of the inhibitor. The concentration at which 50% of efficacy of inhibition is observed (EC50) was determined by analysis of a concentration range of the tested compound in triplicates. The non-linear regression fittings with sigmoidal dose-response (variable slope) were performed with GraphPad Prism 4.03 (GraphPad Software).

[3] = system: KG-1 human leukemia cells; experiment: Anti-proliferative activity on KG-1 (ATPLite cell viability); assay type: cell-based; details: KG-1 cells
Experimental: Anti-Proliferative Activity. (on KG-1)
KG-1 human leukemia cells were obtained from the ATCC (USA) and cultivated in RPMI 1640 medium (with HEPES and Glutamine, BE12-115F, Lonza, France) supplemented with, respectively, 20% and 15% foetal calf serum (Lonza, France), at 37° C. and under 5% CO2. To measure the anti-proliferative properties of tested molecules, 2×10^4 cells are seeded at day 0 in a 96 wells plate. The compounds to be tested, stored at −20° C. as 10^−2 M stock solution in 100% DMSO, are freshly diluted on day 1 in RPMI 1640 medium, before adding a dose range of 3.2 nM to 10 μM to the cells. This treatment is repeated on day 2 and 3, and on day 4 cell viability is assessed using the ATPLite™ kit from Perkin (ATPlite™ 1 Step Luminescence Assay System, ref 3016739), following the provider instructions. The raw data are analyzed with GraphPad Prism software (v4.03) to generate EC50 values corresponding to the compound concentrations giving 50% reduction in cell viability. The values presented are the mean results of at least two independent experiments. […]
At the end of the experiment, cell viability was evaluated by determining the level of ATP released by viable cells.
EC50 values were determined with curve fitting analysis method (non linear regression model with a sigmoid dose response, variable Hill slope coefficient) provided by the Prism Software (GraphPad). Results were expressed as average EC50 values (concentration of tested compound that inhibits 50% of the maximum effect for the considered compound).

[4] = system: luciferase reporter gene under the control of the partially methylated CMV promoter in KG-1 cell line; experiment: Gene expression (CMV-Luc reactivation) in KG-1 cells; assay type: cell-based, human; details: 24 h, induction factor vs DMSO control, mean of 3 experiments ± standard error
Experimental: Gene Expression. (CMV-Luc Reactivation)
KG-1 cell line, stably transfected with the luciferase Firefly (Luc+ from pGL3 by Promega) reporter gene under the control of the CMV promoter (from pEGFP-N1 by Clontech) partially methylated (50%), is seeded at 20,000 cell per well in 96-well plate. After 24 h of incubation in the presence of the compounds or the solvant DMSO, the induction of the promoter is measured by quantification of luciferase with the Brite-lite™ assay system (Perkin Elmer) according to the manufacturer protocol. The luminescence is measured on EnVision™ Multilabel Plate Reader (Perkin Elmer) and the data are expressed in induction factor compared to the DMSO control condition.

T1 sequence (P26358 whole entry): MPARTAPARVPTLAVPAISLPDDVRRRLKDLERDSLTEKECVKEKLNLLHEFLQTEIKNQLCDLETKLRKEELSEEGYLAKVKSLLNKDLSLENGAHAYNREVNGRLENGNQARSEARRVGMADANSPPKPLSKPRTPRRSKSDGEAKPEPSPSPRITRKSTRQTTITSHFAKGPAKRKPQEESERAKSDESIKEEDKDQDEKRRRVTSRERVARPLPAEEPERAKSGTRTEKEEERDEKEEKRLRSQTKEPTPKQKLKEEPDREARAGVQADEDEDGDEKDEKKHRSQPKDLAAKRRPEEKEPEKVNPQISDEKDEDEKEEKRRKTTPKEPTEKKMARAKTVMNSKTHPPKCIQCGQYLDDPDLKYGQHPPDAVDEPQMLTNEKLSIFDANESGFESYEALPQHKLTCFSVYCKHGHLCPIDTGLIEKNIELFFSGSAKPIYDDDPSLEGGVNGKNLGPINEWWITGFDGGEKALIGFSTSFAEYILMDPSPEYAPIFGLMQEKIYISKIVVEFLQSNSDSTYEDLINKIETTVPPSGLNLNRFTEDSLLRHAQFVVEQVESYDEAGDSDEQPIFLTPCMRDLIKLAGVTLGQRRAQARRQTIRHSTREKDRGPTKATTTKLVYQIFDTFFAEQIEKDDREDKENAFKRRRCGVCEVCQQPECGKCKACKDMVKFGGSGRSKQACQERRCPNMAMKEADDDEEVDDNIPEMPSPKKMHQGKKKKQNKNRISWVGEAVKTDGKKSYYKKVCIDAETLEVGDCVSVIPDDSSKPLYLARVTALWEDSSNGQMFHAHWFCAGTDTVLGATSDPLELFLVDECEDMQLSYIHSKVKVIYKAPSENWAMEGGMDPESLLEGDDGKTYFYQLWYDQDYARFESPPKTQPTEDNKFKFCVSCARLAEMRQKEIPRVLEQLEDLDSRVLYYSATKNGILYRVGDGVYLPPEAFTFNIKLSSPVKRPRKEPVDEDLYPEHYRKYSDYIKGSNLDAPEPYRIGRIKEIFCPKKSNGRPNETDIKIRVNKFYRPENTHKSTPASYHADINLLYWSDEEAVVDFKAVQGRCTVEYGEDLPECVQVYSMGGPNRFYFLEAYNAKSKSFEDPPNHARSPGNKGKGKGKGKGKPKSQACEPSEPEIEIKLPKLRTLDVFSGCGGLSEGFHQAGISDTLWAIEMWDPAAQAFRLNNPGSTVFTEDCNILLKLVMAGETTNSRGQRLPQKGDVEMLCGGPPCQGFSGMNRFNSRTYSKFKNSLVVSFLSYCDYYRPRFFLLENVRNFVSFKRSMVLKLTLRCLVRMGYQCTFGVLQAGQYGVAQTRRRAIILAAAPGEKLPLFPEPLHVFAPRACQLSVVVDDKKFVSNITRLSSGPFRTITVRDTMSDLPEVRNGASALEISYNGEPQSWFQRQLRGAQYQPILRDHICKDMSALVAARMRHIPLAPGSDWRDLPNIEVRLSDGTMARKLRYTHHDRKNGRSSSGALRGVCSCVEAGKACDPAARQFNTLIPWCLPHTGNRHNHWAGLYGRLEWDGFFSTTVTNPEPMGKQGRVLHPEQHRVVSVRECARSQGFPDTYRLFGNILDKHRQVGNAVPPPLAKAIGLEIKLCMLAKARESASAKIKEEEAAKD

COc1cc2c(NCCNc3cccc4ccccc34)nc(N3CCN(c4ccccc4)CC3)nc2cc1OCC1CCN(CCNc2ccnc3ccccc23)CC1 [F, N^1-(6-methoxy-2-(4-phenylpiperazin-1-yl)-7-((1-(2-(quinolin-4-ylamino)ethyl)piperidin-4-yl)methoxy)quinazolin-4-yl)-N^2-(naphtalen-1-yl)ethane-1,2-diamine]
EC50 [1]: 11.7 µM
inhibition at 10 µM ([1]; compound at 10 μM): 45%
inhibition at 32 µM ([1]; compound at 32 μM): 93%
inhibition at 1 µM ([2]; compound at 1 μM): 75%
inhibition at 3.2 µM ([2]; compound at 3.2 μM): 84%
inhibition at 0.1 µM ([3]; compound at 0.1 μM, read-out: % proliferation inhibition 0.1 μM): 2%
inhibition at 1 µM ([3]; compound at 1 μM, read-out: % proliferation inhibition 1 μM): 31.9%
inhibition at 5 µM ([3]; compound at 5 μM, read-out: % proliferation inhibition 5 μM): 99.6%
inhibition at 10 µM ([3]; compound at 10 μM, read-out: % proliferation inhibition 10 μM): 99.9%
Reactivation fold of luciferase gene reporter, 0.1 μM ([4]; compound at 0.1 μM): 1.1 ± 0.0 fold
Reactivation fold of luciferase gene reporter, 1 μM ([4]; compound at 1 μM): 4.4 ± 0.4 fold
Reactivation fold of luciferase gene reporter, 5 μM ([4]; compound at 5 μM): 1.0 ± 0.8 fold
Reactivation fold of luciferase gene reporter, 10 μM ([4]; compound at 10 μM): 0.0 ± 0.0 fold
melting point: 180 to 181 °C
